Measurements reported in ChEMBL document CHEMBL4665653, “VU6005806/AZN-00016130, an advanced M positive allosteric modulator (PAM) profiled as a potential preclinical development candidate” (Bioorg Med Chem Lett, 2019).

Columns and labels:
[1] = target: Delta-type opioid receptor (Homo sapiens) (UniProt P41143); assay: Displacement of [3H]-Naltrindole from recombinant full length human delta opioid receptor expressed in HEK293 cells assessed as residual binding level for radioligand at 10 uM incubated for 60 mins by scintillation counting analysis relative to control; assay type: cell-based
[2] = tested on: Mus musculus; assay: Reversal of amphetamine-induced hyperlocomotion in po dosed C57BL/6 mouse assessed as minimum effective dose pretreated for 30 mins after habituation in chamber followed by amphetamine challenge and measured after 1 hr; assay type: functional; settings: C57BL/6, po, 0.5 h, read-out: MED
[3] = species: Rattus norvegicus; assay: Displacement of [3H]-Batrachotoxinin from Wistar rat sodium channel site 2 assessed as residual binding level for radioligand at 10 uM incubated for 60 mins by scintillation counting analysis relative to control; assay type: tissue-based; settings: Brain

Delta-type opioid receptor (Homo sapiens), sequence (P41143 whole entry): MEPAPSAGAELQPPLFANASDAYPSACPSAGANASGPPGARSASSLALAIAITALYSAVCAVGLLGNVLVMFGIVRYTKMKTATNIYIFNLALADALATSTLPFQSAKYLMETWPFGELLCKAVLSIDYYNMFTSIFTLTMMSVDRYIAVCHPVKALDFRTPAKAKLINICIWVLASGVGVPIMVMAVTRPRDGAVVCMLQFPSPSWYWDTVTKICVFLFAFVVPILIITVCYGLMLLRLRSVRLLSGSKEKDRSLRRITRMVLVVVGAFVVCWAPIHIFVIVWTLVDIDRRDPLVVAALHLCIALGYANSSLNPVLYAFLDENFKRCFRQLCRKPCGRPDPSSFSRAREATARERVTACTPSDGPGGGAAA

## COc1nnc2sc(C(=O)NC3CN(c4ncc(C(F)(F)F)cn4)C3)c(N)c2c1C
[1]
  Activity: > 50%
[2]
  minimal effective dose: 1 mg/kg
[3]
  Activity: > 50%
